Data reported in patent publication US11684581B2, “Drug and layered silicate composite with improved oral bioavailability, oral pharmacological composition containing the composite and method for producing the composite” (KOREA INSTITUTE OF GEOSCIENCE AND MINERAL RESOURCES, priority 2018, dated 2023).
Converted amounts (≈) assume the structure as drawn.

Legend:
[1] = In vivo pharmacokinetics analysis after oral administration; conditions: rat, 10 mg/kg based on sorafenib
Method: In order to evaluate the absorption and disappearance rate of the drug during oral administration, a in vivo pharmacokinetics analysis was performed on rats. A femoral artery of the rat was cannulated with PESO tubes. Then, sorafenib suspension, and sorafenib and bentonite composite suspension as produced according to Present Example 7 were orally administered into the rat. Thereafter, the rat blood was collected through the PESO tube based on a time schedule and was centrifuged to obtain plasma. After the plasma samples were pretreated, the in-blood drug concentration was analyzed using a mass spectrometer. The dose was set to 10 mg/kg based on the amount of the sorafenib. The plasma was collected over 2 days.
FIG. 7 is a graph showing changes in concentration of a drug in a blood over time in oral administration of sorafenib suspension (●) and sorafenib and bentonite composite suspension (□).

[2] = Drug release (eruption) experiment in eruption solution, HPLC; assay type: physicochemical; conditions: 50 rpm
Method: Drug release experiments were conducted to confirm the release of the drug from the bentonite based on the surrounding environment type. Specifically, the sorafenib 800 μg and the bentonite composite produced under the process condition of Present Example 7 containing 800 μg of sorafenib were dispersed in 40 ml of an eruption solution respectively to form two dispersions. The, each dispersion was shaken at 37° C. at 50 rpm to effect eruption.
The eruption solution used in this experiment was embodied as each of a solution of 0.1 N HCl in water at pH 1.2 and 50 mM phosphate buffer at pH 7.4. Further, 0.5% (v/v) Tween 80 (Polyoxyethyelene Sorbitan Monooleate) was added to the eruption solution to dissolve the sorafenib sufficiently.
Then, the eruption solution was collected based on a time schedule by 0.4 mL, filtered and analyzed by a high performance liquid chromatography.

[3] = cited from earlier work
[4] = Solubility of sorafenib in mixed solvent (acetonitrile / 1 N hydrochloric acid / dimethyl sulfoxide); assay type: physicochemical; conditions: aqueous with cosolvent or surfactant or cyclodextrin; 15% acetonitrile, 83% 1 N hydrochloric acid, 2% dimethyl sulfoxide; read-out: solubility of sorafenib (dissolved concentration)
Method: In one example, the solubility of sorafenib when the ratio between acetonitrile and 1 N hydrochloric acid was adjusted while the dimethyl sulfoxide ratio in the total mixed solvent was fixed at 2% was measured. As a result, we dissolved the sorafenib at a concentration of 0.5 mg/mL while at a concentration of 15% acetonitrile and 83% of 1 N hydrochloric acid.

AUC(0-inf) ([1]; plasma): 4850 ng·h/mL
Cmax ([1]; plasma): 100 ± 20 ng/mL
MRT ([1]; plasma): 20.5 h
Tmax ([1]; plasma): 6.67 h
half-life ([1]; plasma): 28.2 ± 6.15 h
AUC(0-t) ([1]; plasma collected over 2 days): 3120 ng·h/mL
released amount of the sorafenib ([2]; 50 mM phosphate buffer pH 7.4, 0.5% (v/v) Tween 80, 37° C., 8 hours): below 30%
released amount of the sorafenib ([2]; 0.1 N HCl pH 1.2, 0.5% (v/v) Tween 80, 37° C., 8 hours stated for sorafenib alone): below 30%
solubility [4]: 500 µg/mL (≈ 1080 µM)
SMILES: CNC(=O)c1cc(Oc2ccc(NC(=O)Nc3ccc(Cl)c(C(F)(F)F)c3)cc2)ccn1 [Sorafenib, sorafenib]
In vivo half-life ([3]; background statement): 24 to 48 h
amount of the drug taken excreted in feces ([3]; oral, during about a week until steady-state): More than 70%
